{"source": "patent US20250057832A1", "about": "“USE OF A CLASS OF 1,4-DIHYDRO-NAPHTHYRIDINE DERIVATIVES IN TREATMENT OF TUMORS” (NEURODAWN PHARMACEUTICAL CO., LTD., priority 2021, published 2025)", "key": {"T98G cells": {"tested_on": "T98G cells", "experiment": "Vacuolation induction in T98G cells (Example 1)", "type": "cell-based, human", "method": "T98G cells were stably passaged twice. When the cell density reached more than 85%, the cells were digested with 0.05% trypsin-EDTA for 3 minutes, resuspended with the culture medium, and plated in a 12-well plate at a certain density, with each well system being 1 mL. The cells were cultured for 24 hours, and added with the compound solution prepared above to each well according to the grouping, so that the concentrations of the compounds in the culture system were respectively 5 μM, 10 μM, 20 μM, 40 μM, and 60 μM. An equal volume of DMSO was added as a control well.\nAfter 6 hours of drug treatment, the plates were observed under a microscope with a 20× objective lens, and five fields of view were randomly selected for each well to take photos and record. If in the observed field of view, bright vacuoles with clear border appeared in the cell, and at least one of the following conditions was met: 1) a cell contained at least 1 vacuole with a diameter greater than 3 μm; 2) a cell contained 3 or more vacuoles with a diameter within the range of 0.5-3 μm, the cell was considered to be methuosis-positive cells.\nAmong them, CELL positive: the number of methuosis-positive cells; CELL normal: the number of cells with normal morphology"}, "A172": {"tested_on": "A172", "experiment": "Vacuolation phenotype by S2 (Example 2)", "type": "cell-based, human", "conditions": "A172, 30 μM, 6 hours", "method": "(§1) U87MG, T98G, U251, SK-N-SH, A-172 and HepG2 cells were adherently cultured in MEM+10% FBS+1% P/S medium and passaged at 1:3; CT26.WT cells were adherently cultured in RPMI-1640+10% FBS+1% P/S medium and passaged at 1:3; CHO-K1 was cultured adherently in Ham's F-12K+10% FBS+[…] medium and passaged at 1:3.\n(§2) The cells used above were resuscitated and passaged twice stably. When the cell density reached above 85%, the cells were digested with 0.05% trypsin-EDTA for 3 minutes, resuspended with the culture medium, and plated into a 6-well plate at a certain density, with each well system being 2 mL. The cells were cultured for 24 hours, added with 2 μL of the above-prepared S2 solution (final DMSO concentration 0.1%) to each well according to the grouping, such that the S2 concentration in the cell culture system reached 30 μM.\n(§3) After 6 hours of drug treatment, the plate was observed under a microscope with a 20× objective lens, and five fields of view were randomly selected for each well to take photos and record. If bright vacuoles with clear border appeared in the cell in the observed field of view, and at least one of the following conditions was met: 1) a cell contained at least one vacuole with a diameter greater than […]; 2) a cell contained 3 or more vacuoles with a diameter within the range of […], the cell was considered as a methuosis-positive cell (Journal of Medicinal Chemistry 2018 61 (12), 5424-5434).\n(§4) CELLpositive: the number of methuosis-positive cells; CELLnormal: the number of cells with normal morphology"}, "T98G": {"tested_on": "T98G", "experiment": "Vacuolation phenotype by S2 (Example 2)", "type": "cell-based, human", "conditions": "30 μM, 6 hours", "method": "as §1, §2, §3, §4"}, "U87MG": {"tested_on": "U87MG", "experiment": "Vacuolation phenotype by S2 (Example 2)", "type": "cell-based, human", "conditions": "30 μM, 6 hours", "method": "as §1, §2, §3, §4"}, "CT26.WT": {"tested_on": "CT26.WT", "experiment": "Vacuolation phenotype by S2 (Example 2)", "type": "cell-based, mouse", "conditions": "30 μM, 6 hours", "method": "as §1, §2\n(§5) After 6 hours of drug treatment, the plate was observed under a microscope with a 20× objective lens, and five fields of view were randomly selected for each well to take photos and record. […]"}, "CHO-K1": {"tested_on": "CHO-K1", "experiment": "Vacuolation phenotype by S2 (Example 2)", "type": "cell-based, hamster", "conditions": "non-tumor cell line CHO-K1, 30 μM, 6 hours", "method": "as §1, §2, §5"}, "[1]": {"tested_on": "neural tumor cells and non-neural tumor systems", "experiment": "Cell viability assay, summary over tumor cell lines (Example 2)", "type": "cell-based", "conditions": "neural and non-neural tumor cells of Table 3, 48 hours; read-out: IC50, range over tumor cell lines", "method": "as §1\nThe above various cells were resuscitated and stably passaged twice. When the cell density reached above 85%, the cells were digested with 0.05% trypsin-EDTA for three minutes, resuspended, plated in a 96-well plate at the corresponding density, and cultured for 24 hours. The cells were treated with drugs at final concentrations of the culture system of 0.41 μM, 1.23 μM, 3.7 μM, 11.1 μM, 33.3 μM, and 100 μM. After 48 hours of drug treatment, cell viability was determined using CellCounting-Lite™ 2.0 kit. The plate was added with reagents at 100 µL/well according to the CellCounting-Lite™ 2.0 kit instructions, and shaken for 10 minutes. The luminescence value (LUM) was read on a multi-function plate reader, and the relative viability of the cells was calculated.\nRelative viability of tumor cells V (%)=(LUM-LUMbackground)/(LUMnormal control−LUMbackground)×100%. LUMbackground was the background reading of the complete culture medium well added with the detection reagent. The half inhibitory concentration (IC50) was calculated using GraphPad Prism 8.0.1 statistical software."}, "[2]": {"tested_on": "U87MG-Luc glioblastoma cell in situ transplantation tumor", "experiment": "S2 in U87MG-Luc glioblastoma in situ transplantation tumor model in nude mice (Example 4)", "type": "in vivo, BALB/c nude mice", "conditions": "for Overall survival period: vehicle 31; for Median survival period: vehicle 31.5", "method": "Before the transplantation, the U87MG-Luc cells were digested with 0.05%-trypsin-EDTA, resuspended with pre-cooled PBS to 4×10^7 cells/mL, and transferred to ice for later use. The nude mice were anesthetized with isoflurane gas, and then fixed on a stereotaxic machine in a prone position. The scalp of the nude mouse was disinfected with iodophor, and incised sagittally with a scalpel. The incision was cleaned with iodophor. The skull was exposed, and drilled with a skull drill extending 1.0 mm in front of the bregma and deviating the right side 2.0 mm. 5 μL of cell suspension (2×10^5 cells) was manually injected with a 10 μL flat-head microsyringe, with inserting the needle to a depth of 3.5 mm, withdrawing the needle 0.5 mm, and injecting for about 10 minutes. After stopping the injection for 5 minutes, the needle was slowly removed, and the incision was sterilized and sutured. Finally 50,000 units of penicillin was injected intramuscularly to prevent infection.\nOn days 4, 12, 18, and 25 after the transplantation, 200 μL of 15 mg/mL D-luciferin potassium salt solution, which was filtered and sterilized through a 0.22 μm filter, was injected intraperitoneally. After 10 minutes, IVI chemiluminescence detection (bright field+bioluminescence imaging) was performed using the mouse in vivo imaging system (PE company IVIS Lumina XR). Luorescence intensity was analyzed using Living Image software to obtain fluorescence intensity [p/s], which reflected the size of tumor tissue in the brain of experimental animals.\nThe survival conditions of experimental animals were monitored, and the animals' death dates were recorded timely.\nQuantitative data are expressed as mean±standard error. Each pharmacodynamic index was plotted using GraphPad Prism (8.0.1) software, differences between groups were tested by one-way ANOVA or two-way repeat ANOVA, followed by Fisher's LSD test, and survival analysis was performed by Kaplan-Meier. P<0.05 was defined as a significant difference."}, "various tumor cells": {"tested_on": "various tumor cells", "experiment": "Vacuolation by S2, summary over tumor cells (FIG. 2)", "type": "cell-based", "method": "as §1, §2, §5"}}, "data": [{"smiles": "CCOC(=O)C1=C(C)Nc2nc3c(c(N)c2C1c1ccccc1Cl)CC(C)(C)CC3", "note": "(stereo not drawn) [Compound S2]", "values": [{"measurement": "Rank of vacuolation-inducing activity among the derivatives", "setting": "T98G cells", "value": "strongest vacuolation-inducing activity"}, {"measurement": "Induction of vacuolation in T98 cells", "setting": "T98G cells; FIG. 1 and Table 1", "value": "can induce vacuolation"}, {"measurement": "Induction of vacuolation", "setting": "A172", "value": "can induce vacuolation"}, {"measurement": "Induction of vacuolation", "setting": "T98G", "value": "can induce vacuolation"}, {"measurement": "Induction of vacuolation", "setting": "U87MG", "value": "can induce vacuolation"}, {"measurement": "Induction of vacuolation", "setting": "CT26.WT", "value": "can also induce vacuolation"}, {"measurement": "Induction of vacuolation", "setting": "CHO-K1", "value": "could not induce vacuolation"}, {"measurement": "IC50", "setting": "[1]", "value": "4.7 to 14.3", "unit": "µM"}, {"measurement": "Overall survival period", "setting": "[2]; S2 0.25 mg/kg", "value": 32, "unit": "days"}, {"measurement": "Median survival period", "setting": "[2]; S2 0.25 mg/kg", "value": 32.5, "unit": "days"}, {"measurement": "Survival rate vs vehicle (Log-rank, FIG. 8)", "setting": "[2]; S2 0.5 mg/kg IV", "value": "significantly increased the survival rate"}, {"measurement": "Tumor growth after two weeks of administration vs vehicle (FIG. 7)", "setting": "[2]; S2 0.5 mg/kg IV", "value": "significant inhibitory effect on tumor growth"}, {"measurement": "Growth of U87MG in situ tumors in the brain vs vehicle (growth curve, FIG. 6)", "setting": "[2]; S2 0.5 mg/kg IV once a day for 15 days", "value": "significantly inhibit the growth"}, {"measurement": "Overall survival period", "setting": "[2]; S2 0.5 mg/kg", "value": 33, "unit": "days"}, {"measurement": "Median survival period", "setting": "[2]; S2 0.5 mg/kg", "value": 33.5, "unit": "days"}, {"measurement": "Survival rate vs vehicle (Log-rank, FIG. 8)", "setting": "[2]; S2 1 mg/kg IV", "value": "significantly increased the survival rate"}, {"measurement": "Tumor growth after two weeks of administration vs vehicle (FIG. 7)", "setting": "[2]; S2 1 mg/kg IV", "value": "significant inhibitory effect on tumor growth"}, {"measurement": "Growth of U87MG in situ tumors in the brain vs vehicle (growth curve, FIG. 6)", "setting": "[2]; S2 1 mg/kg IV once a day for 15 days", "value": "significantly inhibit the growth"}, {"measurement": "Rank of inhibitory effect on tumor among S2 dose groups", "setting": "[2]; S2 1 mg/kg IV, after two weeks", "value": "strongest inhibitory effect on tumor"}, {"measurement": "Overall survival period", "setting": "[2]; S2 1 mg/kg", "value": 36, "unit": "days"}, {"measurement": "Median survival period", "setting": "[2]; S2 1 mg/kg", "value": 35, "unit": "days"}, {"measurement": "Growth of U87MG glioma in the brain of nude mice (FIG. 7 legend)", "setting": "[2]; administration of S2 for 2 weeks, dose not given in legend", "value": "inhibited the growth of U87MG glioma"}, {"measurement": "Survival period of nude mice with orthotopically transplanted brain glioma (FIG. 8 legend)", "setting": "[2]; dose not given in legend", "value": "prolonged the survival period"}, {"measurement": "Induction of vacuolation (FIG. 2 legend)", "setting": "various tumor cells", "value": "induced vacuolation"}]}]}
